According to publication PMC9119314 (Frontiers in Pharmacology, 2022):
Entries after “also recorded” stand apart in the source; their conditions may differ. Read-outs that look alike come from different tables or passages of the source. One block for each compound: values may come before it.

What was measured:
P. knowlesi A1-H.1 = test: In vitro antiplasmodial activity, P. knowlesi A1-H.1 (SYBR Green I); assay type: cell-based, Plasmodium knowlesi; settings: Plasmodium knowlesi, 27 h, read-out: Activity against P. knowlesi A1-H.1, IC50, 27 h, ± SD
Experimental: (§1) P. falciparum (3D7 clone) and P. knowlesi (A1-H.1 clone) were maintained in culture in RPMI 1640 supplemented with 25 mM HEPES, 25 mM NaHCO3, 10 mM D-glucose, 2 mM L-glutamine, 50 mg/L hypoxanthine, 25 mg/L gentamicin sulfate, 5 g/L Albumax II, and 10% (v/v) equine serum (Thermo Fisher Scientific, 26-050-088). The P. falciparum (3D7) and P. knowlesi (A1-H.1) parasites were grown in human A^+ red blood cells (National Health Blood and Transplant, United Kingdom). The parasites were incubated in sealed flasks at 37°C under a culture gas mixture of 96% N2, 3% CO2, and 1% O2. ([van Schalkwyk et al., 2019]). The compounds were initially dissolved in DMSO prior to diluting in RPMI. All experiments were initiated using unsynchronized parasites with both the parasitemia and hematocrit set to 1%. Drug susceptibility assays were set up in 96-well, flat-bottom microplates in a final volume of 200 μL, as described previously ([van Schalkwyk et al., 2017]). The controls were included for the background fluorescence (0% viability; parasites exposed to a supralethal 10 μM chloroquine concentration) and 100% growth (parasites in drug-free wells). The plates were incubated for one complete life cycle (27 h for P. knowlesi or 48 h for P. falciparum in vitro) at 37°C in a modular incubation chamber (Billups-Rothenburg Inc.) under the culture gas. Upon termination of the assay, the plates were stored at −20°C overnight. The SYBR Green I fluorescent method was used to measure parasite survival ([Bennett et al., 2004]; [Smilkstein et al., 2004]). After the microplates were thawed, 100 μL from each well was transferred into a duplicate plate. To this was added 100 μL of SYBR green solution [SYBR Green I (Thermo Fisher Scientific, S7563), diluted 1:5000 in a lysis buffer made of 20 mM Tris, 5 mM EDTA, 0.008% (w/v) saponin, 0.08% (v/v) Triton X-100, pH 7.5]. The plates were stored in the dark for 1 h before fluorescence was read at a 490 nm excitation wavelength and a 520 nm emission wavelength on a Spectramax M3 microplate reader (Molecular Devices) ([van Schalkwyk et al., 2017]). The background fluorescence (wells with parasites at 0% viability) was subtracted from all drug assay wells, and the parasite proliferation was determined as a percentage of the fluorescence in the drug-free control wells.

[1] = Acute oral toxicity in mice; assay type: in vivo; settings: oral, 20, 50 and 100 mg/kg/dose × 3 consecutive days; up to 100 mg/kg/dose; 2 as hydrochloride, 4–6 as citrate
Experimental: Female NIH Swiss mice aged 6–12 weeks were used (Envigo, Blackthorn, United Kingdom). The mice were kept in cages housed in isolation cabinets in an air-conditioned room with regular alternating cycles of light and darkness. They received Teklad 2018 diet (Envigo, Blackthorn, United Kingdom) and water ad libitum. All animal procedures were carried out under a project license issued by the UK Home Office, and UK National Cancer Research Institute Guidelines for the Welfare of Animals were followed throughout. […] A group of two untreated control animals was included at each dose level. Following treatment, the body weight was measured on a regular basis, and behavior and general appearance were monitored visually to assess for deleterious effects (e.g., dehydration, impaired mobility, hunched posture, a low body temperature, ulceration, and significant bodyweight loss), with any effects during the study recorded. […] If no deleterious effects were seen after at least 18 days of study, then the animals were sacrificed, and the dose was considered non-toxic.

Hep G2-A16-CD81 cells = test: Hep G2 cellular toxicity counter-screen (CellTiterGlo); assay type: cell-based; settings: HepG2-A16-CD81, no sporozoites, ± SE, read-out: Activity against Hep G cells
Experimental: (§2) Briefly, 3000 Hep G2-A16-CD81 cells/well were seeded in 1536-well plates (Greiner Bio). 50 nL of the test and control compound diluted in DMSO was added and incubated for 24 h. […] The plates were centrifuged for 5 min at 330 × g and incubated at 37°C. Forty-eight hours post infection, 2 μL of luciferin reagent (Promega BrightGlo) was added to each well, and the luciferase activity was detected using a Perkin Elmer Envision plate reader. […] To counter-screen for cellular toxicity, Hep G2-A16-CD81 cells were seeded as above for the sporozoite liver-stage assay but in the absence of sporozoites. Toxicity measurements were performed by adding Promega CellTiterGlo® (2 μL), followed by luminescence measurements. Curve fitting was done as described above using puromycin (25 μM) as a positive control and DMSO as negative control wells.

P. falciparum K1 [2] = system: P. falciparum K1; set-up: method as in Onyeibor et al., 2005; settings: strain K1; ref Onyeibor et al., 2005; read-out: Activity against P. falciparum K1, IC50; cited from earlier work
P. falciparum 3D7 = test: In vitro antiplasmodial activity, P. falciparum 3D7 (SYBR Green I); assay type: cell-based; settings: Plasmodium falciparum, read-out: Activity against P. falciparum 3D7, IC50
Experimental: as §1

[3] = system: P. falciparum (NF54-Mal8p1.16-GFP-Luc) late-stage gametocytes; test: microbe, parasite or virus in culture; assay type: cell-based, Plasmodium falciparum; settings: Plasmodium falciparum; for inhibition at 5 µM: NF54, read-out: Inhibition of late-stage gametocytes
Experimental: Gametocytes were produced as per [Reader et al. (2015]; [2021)] from P. falciparum NF54-Mal8p1.16-GFP-Luc ([Adjalley et al., 2011]), and each batch was validated for viability and functionality before use. […] Drug assays were set up on day 10 (representing late gametocytes, >90% stage IV/V gametocytes) using a 2–3% gametocytemia, 1.5% hematocrit culture. The drug pressure was for 48 h under stationary, hypoxic conditions (90% N2, 5% O2, and 5% CO2) at 37°C. Luciferase activity was determined in 30 μL parasite lysates by adding 30 μL luciferin substrate (Promega Luciferase Assay System) at room temperature and detection of resultant bioluminescence at an integration constant of 10 s with the GloMax®-Multi + Detection System with Instinct® Software. Methylene blue (5 μM) and an internal control (MMV390048, 5 μM) were routinely included as controls.

P. berghei = settings: I.P., 25 mg/kg; ref Onyeibor et al., 2005; cited from earlier work
A2780/cis cells = test: Chemosensitivity MTT assay, cisplatin-resistant A2780/CIS; assay type: cell-based, human; settings: 96 h, ± SE, read-out: Activity against A2780/cis cells, IC50
Experimental: (§3) The chemosensitivity of compounds 3–6 was assessed in the wild-type immortalized human ovarian adenocarcinoma cell line A2780 and its daughter cell lines, which are resistant to the standard cancer chemotherapeutics doxorubicin (A2780/ADR) and cisplatin (A2780/CIS, all cell lines from ECACC, Salisbury, United Kingdom). A modified MTT assay was used ([Shnyder et al., 2008]). Cells (2 × 10^4/ml) were inoculated into each well of a 96-well plate and incubated for 24 h at 37°C in a humidified atmosphere containing 5% CO2. Compounds were then added at a range of concentrations to each well, and the plates were then incubated for a further 96 h. After 96 h, the culture medium was removed and 200 μL of 0.5 mg ml^–1 MTT solution (Sigma) in the complete medium was added to each well. Following a further 4 h incubation, the solution was removed from each well and 150 μL of DMSO was added to solubilize the formazan crystals resulting from MTT conversion. The absorbance values for the resulting solutions were read at 540 nm on an Azure 96-well microplate reader (Azure Biosynstems Inc.), and the cell survival was calculated as the absorbance of treated cells divided by the control.

A2780/WT cells = test: Chemosensitivity MTT assay, A2780 wild type; assay type: cell-based, human; settings: ± SE, read-out: Activity against A2780/WT cells, IC50
Experimental: as §3

A2780/ADR cells = test: Chemosensitivity MTT assay, doxorubicin-resistant A2780/ADR; assay type: cell-based; settings: Homo sapiens, 96 h, ± SE, read-out: Activity against A2780/ADR cells, IC50
Experimental: as §3, with “A” for “The chemosensitivity of compounds 3–6 was assessed in the wild-type immortalized human ovarian adenocarcinoma cell line A2780 and its daughter cell lines, which are resistant to the standard cancer chemotherapeutics doxorubicin (A2780/ADR) and cisplatin (A2780/CIS, all cell lines from ECACC, Salisbury, United Kingdom). A”

P. berghei sporozoites = test: P. berghei liver-stage assay (sporozoites in Hep G2-A16-CD81 cells, luciferase); assay type: cell-based, Plasmodium berghei; settings: Plasmodium berghei, HepG2-A16-CD81, 48 h, read-out: Activity against the P. berghei liver stage, IC50
Experimental: as §2

P. falciparum K1 [4] = test: In vitro antiplasmodial activity, P. falciparum K1 (lactate dehydrogenase assay); assay type: cell-based, Plasmodium falciparum; settings: Plasmodium falciparum, read-out: Activity against P. falciparum K1, IC50
Experimental: P. falciparum (K1 clone) was maintained in human erythrocytes prepared from the donated blood samples (blood groups unknown, Ethical Tissue, University of Bradford), suspended in the RPMI 1640 medium as previously described ([Wright et al., 2001]), except that serum was replaced with Albumax II, [5% (^w/v)]. […] Twofold serial dilutions were made in 96-well microtiter plates in duplicate, and infected erythrocytes were added to give a final volume of 100 µL with 2.5% hematocrit and 1% parasitemia. Chloroquine diphosphate was used as a positive control, and uninfected and infected erythrocytes without compounds were included in each test. The plates were placed into a modular incubator; gassed with 93% nitrogen, 3% oxygen, and 4% carbon dioxide; and incubated at 37°C for 48 h. The parasite growth was assessed by measuring lactate dehydrogenase activity as described by [Makler et al. (1993)]. The reagent used contained the following in each mL: acetylpyridine adenine dinucleotide (APAD), 0.74 mg; lithium lactate, 19.2 mg; diaphorase, 0.1 mg; Triton X-100, 2 μL; nitroblue tetrazolium, 1 mg; and phenazine ethosulphate, 0.5 mg. Fifty microliter of this reagent was added to each well and mixed; plates were incubated for 15 min at 37°C. The optical densities were read at 550 nm using an Azure 96-well microplate reader (Azure Biosystems Inc.), and % inhibition of growth was calculated by comparison with the control values. IC50 values were determined using linear regression analysis (Microsoft Excel). A minimum of three separate determinations was carried out for each compound.

[5] = system: T. brucei bloodstream forms (strain 427, derivative 221); test: In vitro activity against T. brucei bloodstream forms (resazurin); assay type: cell-based, Trypanosoma brucei; settings: Trypanosoma brucei, bloodstream forms, hydrochloride salts except 6 (citrate), ± SE
Experimental: Bloodstream form T. brucei (strain 427, derivative 221) was maintained in modified Iscove’s medium, as described previously ([Taylor et al., 2013]). […] The parasites were diluted to 1 × 10^4 ml^−1, the compound was added at a range of concentrations, and the plates were incubated at 37°C in 5% CO2 for 48 h. Resazurin was then added to each well, and the plates were incubated for a further 16 h. Fluorescence intensities were determined using a BMG FLUOstar Omega plate reader (excitation 545 nm, emission 590 nm), and data were analyzed using Graph Pad Prism 9.0 software. […]

SMILES: Cn1c2c3cc(Br)ccc3nc-2cc2cc(Br)ccc21 [Compound 2, 2,7-dibromocryptolepine]
IC50 (P. knowlesi A1-H.1): 30 ± 4.5 nM | Acute oral toxicity in mice [1]: No toxicity was seen; also recorded: not toxic | IC50 (Hep G2-A16-CD81 cells): 4940 ± 1810 nM | IC50 (P. falciparum K1 [2]): 49 ± 20 nM | IC50 (P. falciparum 3D7; chloroquine-sensitive strain 3D7, 48 h): 30 ± 6 nM | IC50 ([3]; NF54, 48 h, read-out: Activity against late-stage gametocytes IC50): 2000 ± 170 nM | Suppression of parasitemia in mice (P. berghei): 90% | Toxicity to mice in the antimalarial test (P. berghei): without apparent toxicity

SMILES: N.N.[Cl][Pt][Cl] [Cisplatin, reference compound]
IC50 (A2780/cis cells): 24700 ± 2750 nM | IC50 (A2780/WT cells; 96 h): 3470 ± 2200 nM

IC50 (A2780/ADR cells): 3030 ± 350 nM | IC50 (A2780/WT cells; Homo sapiens, A2780, 96 h): 70 ± 60 nM
SMILES: COc1cccc2c1C(=O)c1c(O)c3c(c(O)c1C2=O)C[C@@](O)(C(=O)CO)C[C@@H]3O[C@H]1C[C@H](N)[C@H](O)[C@H](C)O1 [Doxorubicin, reference compound]

SMILES: O=C1C(O)=C([C@H]2CC[C@H](c3ccc(Cl)cc3)CC2)C(=O)c2ccccc21 [Atovaquone, reference compound]
IC50 (P. berghei sporozoites): 0.383 nM

IC50 (P. falciparum K1 [4]; chloroquine-resistant strain K1, 48 h, mean ± SE): 150 ± 30 nM | IC50 (A2780/cis cells; Homo sapiens, A2780cis): 230 ± 20 nM | IC50 ([5]; 64 h, 48 h + 16 h resazurin): 199 ± 15 nM | IC90 [5]: 256 ± 6 nM | IC50 (A2780/ADR cells): 170 ± 40 nM | IC50 (A2780/WT cells; Homo sapiens, A2780, 96 h): 70 ± 10 nM
SMILES: C[n+]1c2ccccc2cc2[n-]c3ccc(Br)cc3c21 [Compound 3, 7-Bromocryptolepine]

SMILES: CCN(CC)CCCC(C)Nc1ccnc2cc(Cl)ccc12 (stereo not drawn) [Chloroquine diphosphate, reference compound]
IC50 (P. knowlesi A1-H.1): 20 ± 3 nM | IC50 (P. falciparum K1 [4]; K1, 48 h): 350 ± 140 nM | IC50 (P. falciparum 3D7; 3D7, 48 h): 12 ± 3 nM

SMILES: CN(C)c1ccc2nc3ccc(=[N+](C)C)cc-3sc2c1 [Methylene blue, reference compound]
inhibition at 5 µM [3]: 96%

SMILES: CS(=O)(=O)c1ccc(-c2cnc(N)c(-c3ccc(C(F)(F)F)nc3)c2)cc1 [MMV 390048, reference compound]
inhibition at 5 µM [3]: 96.2%
